The assay deals with E. coli [ATCC 25922]. Put plainly: In vivo efficacy in the mouse E. coli thigh infection model. Conditions: neutropenic BALB/c mice, oral. The protocol: To assess the Oral efficacy, Example 13 was tested in BALB/c mice thigh infection model following per oral doses of 100 mg/kg once, 50 mg/kg once and twice, 33 mg/kg thrice and 25 mg/kg four times over a 24 hour period post infection. This study was performed following all ethical practices as laid down in the guidelines for animal care (Registration number No. 1852/PO/Rc/S/16/CPCSEA). The study was approved by the Institutional Animals Ethics Committee (IAEC) of the test facility. The formulation used was 0.1% Tween80 in 0.25% CMC and Example 13 administered as suspension through an oral gavage. Neutropenic mice were infected with [˜1×10^6 CFU/mouse] E. coli [ATCC 25922] by intramuscular route. Two hours post infection, mice were treated orally with total doses of 100, 50, 50, 33 and 25 mg/kg of Example 13 as one, two, three and four equally divided doses over a 24 h period. Animals were sacrificed 24 hr post infection and thigh tissues were harvested to enumerate the bacterial CFU count. Thigh muscles were placed in 1 ml of sterile LB broth and homogenized using a homogenizer (Omni Tip (220 volt hand held)). Serial ten-fold dilutions of the thigh homogenates were prepared in sterile LB broth, 0.05 ml of four dilutions for each thigh was plated onto Lactose agar plates. […]

We go through 1 molecule from patent US10711011B2, “Substituted oxazolidines as anti-bacterial agents” (BUGWORKS RESEARCH, INC., priority 2016, dated 2020).

Turning to `CN1C(=O)Cc2ccc(F)c(CCNCCC3CN(c4ccc5c(n4)NC(=O)CO5)C(=O)O3)c21` (single isomer, unassigned) [Example 13, 6-(5-(2-((2-(6-fluoro-1-methyl-2-oxoindolin-7-yl)ethyl)amino)ethyl)-2-oxooxazolidin-3-yl)-2H-pyrido[3,2-b][1,4]oxazin-3(4H)-one], the “efficacy (bacterial density Log 10 CFU/thigh vs vehicle)” value reads like this: (100 mg/kg as single, two, three and four equally divided doses over 24 h) “significant efficacy”; (single dose of 50 mg/kg) “ineffective”.
